From patent publication US20230398130A1, “METHODS AND COMPOSITIONS FOR DIFFERENTIATING STEM CELLS” (Massachusetts Institute of Technology, priority 2020, published 2023)
“Also recorded” adds a separate entry of the source.

Columns and labels:
[1] = system: ISC-enriched organoids; test: Lysozyme secretion assay, 3-D organoids in ENR+CD, normalized to ATP; type: cell-based, murine; conditions: for Paneth cell differentiation (functional LYZ secretion), in combination with KPT-330: 6-day ENR+CD differentiation with 160 nM KPT-330; for Paneth cell differentiation (functional LYZ secretion), compound alone: 6-day ENR+CD differentiation, 10 μM SR11302, 20 nM Cobimetinib, others over a dose range
Protocol: Lysozyme assay (3D culture). ISC-enriched organoids cultured in 3D Matrigel with ENRCV media were passaged to 48-well plate in 3D Matrigel with ENRCV. At day zero, media were replaced to ENR or ENRCD with or without indicated compounds, and media were replaced every other day. At day six, cells were washed twice with basal media and treated with carbamylcholine chloride (Sigma, C4382) for 3 hours. Media were collected and lysozyme activity was measured by EnzChek Lysozyme Assay Kit (ThermoFisher, E22013).
(§1) Lysozyme secretion assay. ISC-enriched organoids in 3D Matrigel culture were passaged to a 48- or 96-well plate and cultured with ENR or ENR+CD media containing DMSO or each drug for 6 days. DMSO- or drug-containing media were changed every other day. On day 6, cells were washed with basal media twice and treated with basal media with or without 10 μM carbamoylcholine chloride for 3 h in a CO2 incubator at 37° C. A part of the conditioned media was collected and used for lysozyme assay (Thermo, E-22013) following the manufacturer's instruction. The fluorescence was measured using excitation/emission of 485/530 nm. CellTiter-Glo 3D Reagent (Promega, G9681) was added afterward, and the cell culture plate was incubated on an orbital shaker at RT for 30 min to induce cell lysis and to stabilize the luminescent signal. The solution was replaced to a 96-well white microplate, and luminescent signals were measured by a microplate reader (infinite M200, Tecan). The standard curve was prepared by diluting recombinant ATP (Promega, P1132). For both assays, a polynomial cubic curve was fitted to a set of standard data, and each sample value was calculated on the Microsoft Excel.
as §1, with “in 3-D” for “in 3D”, “μM carbachol” for “μM carbamoylcholine chloride”, “3 hours” for “3 h”, “C. Conditioned” for “C. A part of the conditioned”, “nm. CTG” for “nm. CellTiter-Glo”, “Reagent” for “Reagent (Promega, G9681)”

[2] = system: ISC-enriched organoids; test: Primary screen, 384-well 2.5-D organoid differentiation (ENR+CD, 6 days): basal lysozyme secretion (LYZ.NS); type: cell-based, murine; conditions: SSMD in LYZ.NS and LYZ.S assays
From the text: High-throughput screening.

SMILES	Paneth cell differentiation (functional LYZ secretion), in combination with KPT-330 [1]	Paneth cell differentiation (functional LYZ secretion), compound alone [1]	primary screen hit call [2]
CC1=C(/C=C/C(=C/C=C/C(C)=C/C(=O)O)c2ccc(C)cc2)C(C)(C)CCC1 [SR11302]	significantly decreases functional LYZ secretion	also decreases functional LYZ secretion; also recorded: significantly decreases functional LYZ secretion	–
COc1cc2c(Nc3ccc(NC(=O)c4ccccc4)cc3)ncnc2cc1OCCCN1CCOCC1 [ZM447439, reference compound]	–	did significantly increase Paneth cell differentiation	lower-effect size hit
Cc1ccc(C(=O)Cn2c3c(sc2=N)CCCC3)cc1 [pifithrin-a]	neither P53 inhibitor altered Paneth cell differentiation; also recorded: did not alter Paneth cell differentiation	neither P53 inhibitor altered Paneth cell differentiation; also recorded: did not alter Paneth cell differentiation	–
